The values that follow come from patent US11178871B2, “Herbicidal pyrimidine compounds” (BASF SE, priority 2016, dated 2021).

Holding throughout (format): in vivo
One assay has as its system Apera spica-venti. Description: greenhouse test, pre-emergence treatment, APESV. The text has this:
(§1) The culture containers used were plastic flowerpots containing loamy sand with approximately 3.0% of humus as the substrate. The seeds of the test plants were sown separately for each species.
(§2) For the pre-emergence treatment, the active ingredients, which had been suspended or emulsified in water, were applied directly after sowing by means of finely distributing nozzles. The containers were irrigated gently to promote germination and growth and subsequently covered with transparent plastic hoods until the plants had rooted. This cover caused uniform germination of the test plants, unless this had been impaired by the active ingredients.
(§3) Depending on the species, the plants were kept at 10-25° C. or 20-35° C., respectively.
(§4) The test period extended over 2 to 4 weeks. During this time, the plants were tended, and their response to the individual treatments was evaluated.
(§5) Evaluation was carried out using a scale from 0 to 100. 100 means no emergence of the plants, or complete destruction of at least the aerial moieties, and 0 means no damage, or normal course of growth. A good herbicidal activity is given at values of at least 70 and a very good herbicidal activity is given at values of at least 85.
(§6) The plants used in the greenhouse experiments were of the following species: […]

Assay [1] concerns Echinocloa crus-galli. Description: greenhouse test, post-emergence treatment, ECHCG. To be noted: post-emergence.
Text: as §1
(§7) For the post-emergence treatment, the test plants were first grown to a height of 3 to 15 cm, depending on the plant habit, and only then treated with the active ingredients which had been suspended or emulsified in water. For this purpose, the test plants were either sown directly and grown in the same containers, or they were first grown separately as seedlings and transplanted into the test containers a few days prior to treatment.
as §3, §4, §5, §6

Assay [2] concerns Echinocloa crus-galli. Description: greenhouse test, pre-emergence treatment, ECHCG.
Text: as §1, §2, §3, §4, §5, §6

A further assay deals with Alopecurus myosuroides. Put plainly: greenhouse test, post-emergence treatment, ALOMY. To be noted: post-emergence.
Text: as §1, §7, §3, §4, §5, §6

Regarding `O=C(O)C(O)Cc1nc(C2CC2)ncc1-c1ccccc1Cl` (stereo not shown) [Ex. 97], the herbicidal activity entry with Apera spica-venti (2000 g/ha) and with Echinocloa crus-galli [1] (2000 g/ha) was “very good (a very good herbicidal activity is given at values of at least 85)” each time.

For the compound `Cc1ccc(-c2nc(C3CC3)ncc2-c2cc(F)ccc2C)o1` [Ex. 110], the herbicidal activity entry in the assay on Echinocloa crus-galli [1] (1000 g/ha) is listed as “good (A good herbicidal activity is given at values of at least 70)”.

On to `CC(=O)OC(c1nc(C2CC2)ncc1-c1ccccc1Cl)C(C)(C)OC(C)=O` (stereo not shown) [Ex. 274], for which the herbicidal activity result in the assay with Echinocloa crus-galli [2] (1000 g/ha), in the assay with Apera spica-venti (1000 g/ha), with Echinocloa crus-galli [1] (1000 g/ha) and in the assay with Alopecurus myosuroides (1000 g/ha) was “very good (a very good herbicidal activity is given at values of at least 85)” in each case.

Turning to `CCc1ncc(-c2ccccc2Br)c(-c2ccoc2)n1` [Ex. 63], the herbicidal activity result in the assay on Echinocloa crus-galli [1] (1000 g/ha) is reported as “very good (a very good herbicidal activity is given at values of at least 85)”.

For `Clc1ccccc1-c1cnc(C2CC2)nc1CC1=CCOCC1` [Ex. 104], the herbicidal activity entry with Echinocloa crus-galli [2] (2000 g/ha) is on record as “good (A good herbicidal activity is given at values of at least 70)”; in the assay on Apera spica-venti (2000 g/ha) it was “very good (a very good herbicidal activity is given at values of at least 85)”; with Echinocloa crus-galli [1] (2000 g/ha), “good (A good herbicidal activity is given at values of at least 70)”; with Alopecurus myosuroides (2000 g/ha) it was “very good (a very good herbicidal activity is given at values of at least 85)”.

In the case of `Clc1ccccc1-c1cnc(C2CC2)nc1COCc1ccccc1` [Ex. 21], the herbicidal activity entry in the assay with Apera spica-venti (1000 g/ha) and with Alopecurus myosuroides (1000 g/ha) was “very good (a very good herbicidal activity is given at values of at least 85)” in each case.

Consider `COC(=O)C(O)c1nc(C2CC2)ncc1-c1ccccc1Cl` (stereo not shown) [Ex. 220], for which the herbicidal activity result in the assay with Echinocloa crus-galli [2] (1000 g/ha) was “good (A good herbicidal activity is given at values of at least 70)”.

Regarding `COc1cccc(-c2nc(C3CC3)ncc2-c2ccccc2Cl)c1` [Ex. 125], the herbicidal activity entry with Echinocloa crus-galli [1] (500 g/ha) was “very good (a very good herbicidal activity is given at values of at least 85)”.

Regarding `FC(F)(F)c1ccc(-c2nc(C3CC3)ncc2-c2ccccc2Cl)s1` [Ex. 216], the herbicidal activity result with Apera spica-venti (1000 g/ha), in the assay with Echinocloa crus-galli [1] (1000 g/ha) and in the assay on Alopecurus myosuroides (1000 g/ha) was “very good (a very good herbicidal activity is given at values of at least 85)” throughout.

Regarding `OC1(Cc2nc(C3CC3)ncc2-c2ccccc2Br)COC1` [Ex. 155], the herbicidal activity entry with Echinocloa crus-galli [1] (2000 g/ha) and in the assay with Alopecurus myosuroides (2000 g/ha) was “very good (a very good herbicidal activity is given at values of at least 85)” in each case.

Take `Cc1nc(-c2nc(C3CC3)ncc2-c2ccccc2Br)co1` [Ex. 288]: the herbicidal activity result with Alopecurus myosuroides (2000 g/ha) is reported as “very good (a very good herbicidal activity is given at values of at least 85)”.

On to `Cc1ccc(-c2nc(C3CC3)ncc2-c2ccccc2C)o1` [Ex. 120], for which the herbicidal activity result in the assay with Alopecurus myosuroides (1000 g/ha) is “good (A good herbicidal activity is given at values of at least 70)”.

For the compound `CC(O)c1nc(C2CC2)ncc1-c1ccc(F)cc1Cl` (stereo not shown) [Ex. 112], in the assay with Echinocloa crus-galli [1] (1000 g/ha), the herbicidal activity entry was “good (A good herbicidal activity is given at values of at least 70)”.

Turning to `Brc1ccccc1-c1cnc(C2CC2)nc1-c1ccco1` [Ex. 34], the herbicidal activity entry with Echinocloa crus-galli [2] (2000 g/ha) was “good (A good herbicidal activity is given at values of at least 70)”; in the assay with Apera spica-venti (2000 g/ha) it was “very good (a very good herbicidal activity is given at values of at least 85)”; with Echinocloa crus-galli [1] (2000 g/ha), “very good (a very good herbicidal activity is given at values of at least 85)”; in the assay with Alopecurus myosuroides (2000 g/ha), “good (A good herbicidal activity is given at values of at least 70)”.

Take `Clc1ccccc1-c1cnc(C2CC2)nc1-c1cocn1` [Ex. 215]: the herbicidal activity result in the assay with Apera spica-venti (2000 g/ha) and with Alopecurus myosuroides (2000 g/ha) was “very good (a very good herbicidal activity is given at values of at least 85)” each time.

`CC(C)(C)/C=C/c1nc(C2CC2)ncc1-c1ccccc1Cl` [Ex. 95]: the herbicidal activity result in the assay on Apera spica-venti (2000 g/ha), with Echinocloa crus-galli [1] (2000 g/ha) and in the assay on Alopecurus myosuroides (2000 g/ha) was “very good (a very good herbicidal activity is given at values of at least 85)” in each case.

`OC(Cc1nc(C2CC2)ncc1-c1ccccc1Cl)c1ccccc1` (stereo not shown) [Ex. 66]: the herbicidal activity entry in the assay on Echinocloa crus-galli [1] (2000 g/ha) was “very good (a very good herbicidal activity is given at values of at least 85)”.

Take `OC(Cc1nc(C2CC2)ncc1-c1ccccc1Cl)c1nc(Cl)ccc1Cl` (stereo not shown) [Ex. 256]: the herbicidal activity result in the assay with Echinocloa crus-galli [2] (2000 g/ha), in the assay on Apera spica-venti (2000 g/ha) and in the assay with Echinocloa crus-galli [1] (2000 g/ha) was “very good (a very good herbicidal activity is given at values of at least 85)” each time.

As for `OC1(Cc2nc(C3CC3)ncc2-c2ccccc2Cl)COC1` [Ex. 73], in the assay with Alopecurus myosuroides (2000 g/ha), the herbicidal activity result was “good (A good herbicidal activity is given at values of at least 70)”.

In the case of `CC(C)(O)c1nc(C2CC2)ncc1-c1ccc(F)cc1Cl` [Ex. 135], the herbicidal activity result in the assay with Alopecurus myosuroides (500 g/ha) is given as “good (A good herbicidal activity is given at values of at least 70)”.

In the case of `OC1(c2nc(C3CC3)ncc2-c2ccccc2Cl)CCC1` [Ex. 143], the herbicidal activity entry with Echinocloa crus-galli [1] (2000 g/ha) is listed as “very good (a very good herbicidal activity is given at values of at least 85)”.

With `CC(C)=CC=Cc1nc(C2CC2)ncc1-c1ccccc1Cl` [Ex. 224], the herbicidal activity entry in the assay on Echinocloa crus-galli [2] (2000 g/ha), with Apera spica-venti (2000 g/ha), in the assay with Echinocloa crus-galli [1] (2000 g/ha) and in the assay with Alopecurus myosuroides (2000 g/ha) was “very good (a very good herbicidal activity is given at values of at least 85)” each time.

In the case of `OC(c1nc(C2CC2)ncc1-c1ccccc1Cl)C(O)c1c(Cl)ccc(Cl)c1Cl` (stereo not shown) [Ex. 240], the herbicidal activity entry with Echinocloa crus-galli [2] (2000 g/ha) and in the assay on Apera spica-venti (2000 g/ha) was “very good (a very good herbicidal activity is given at values of at least 85)” each time.

As to `Clc1ccccc1-c1cnc(C2CC2)nc1CCc1ccco1` [Ex. 102], in the assay on Echinocloa crus-galli [1] (2000 g/ha), the herbicidal activity result is on record as “very good (a very good herbicidal activity is given at values of at least 85)”.

As to `N#Cc1csc(-c2nc(C3CC3)ncc2-c2ccccc2Cl)c1` [Ex. 126], the herbicidal activity result in the assay on Echinocloa crus-galli [1] (2000 g/ha) was “very good (a very good herbicidal activity is given at values of at least 85)”.

For the compound `Cc1ccc(-c2nc(C3CC3)ncc2-c2ccccc2Cl)o1` [Ex. 26], the herbicidal activity result in the assay on Echinocloa crus-galli [2] (2000 g/ha), with Apera spica-venti (2000 g/ha), in the assay on Echinocloa crus-galli [1] (2000 g/ha) and with Alopecurus myosuroides (2000 g/ha) was “very good (a very good herbicidal activity is given at values of at least 85)” each time.
